Columns and labels:
Flt3 = target: T1, Flt3 (Homo sapiens, UniProt P36888); test: Flt3 kinase ELISA bioassay; format: biochemical; settings: ELISA kinase assay, 200 μM ATP
T1 construct: purchased Cell Signaling
T1 sequence (P36888 27-993): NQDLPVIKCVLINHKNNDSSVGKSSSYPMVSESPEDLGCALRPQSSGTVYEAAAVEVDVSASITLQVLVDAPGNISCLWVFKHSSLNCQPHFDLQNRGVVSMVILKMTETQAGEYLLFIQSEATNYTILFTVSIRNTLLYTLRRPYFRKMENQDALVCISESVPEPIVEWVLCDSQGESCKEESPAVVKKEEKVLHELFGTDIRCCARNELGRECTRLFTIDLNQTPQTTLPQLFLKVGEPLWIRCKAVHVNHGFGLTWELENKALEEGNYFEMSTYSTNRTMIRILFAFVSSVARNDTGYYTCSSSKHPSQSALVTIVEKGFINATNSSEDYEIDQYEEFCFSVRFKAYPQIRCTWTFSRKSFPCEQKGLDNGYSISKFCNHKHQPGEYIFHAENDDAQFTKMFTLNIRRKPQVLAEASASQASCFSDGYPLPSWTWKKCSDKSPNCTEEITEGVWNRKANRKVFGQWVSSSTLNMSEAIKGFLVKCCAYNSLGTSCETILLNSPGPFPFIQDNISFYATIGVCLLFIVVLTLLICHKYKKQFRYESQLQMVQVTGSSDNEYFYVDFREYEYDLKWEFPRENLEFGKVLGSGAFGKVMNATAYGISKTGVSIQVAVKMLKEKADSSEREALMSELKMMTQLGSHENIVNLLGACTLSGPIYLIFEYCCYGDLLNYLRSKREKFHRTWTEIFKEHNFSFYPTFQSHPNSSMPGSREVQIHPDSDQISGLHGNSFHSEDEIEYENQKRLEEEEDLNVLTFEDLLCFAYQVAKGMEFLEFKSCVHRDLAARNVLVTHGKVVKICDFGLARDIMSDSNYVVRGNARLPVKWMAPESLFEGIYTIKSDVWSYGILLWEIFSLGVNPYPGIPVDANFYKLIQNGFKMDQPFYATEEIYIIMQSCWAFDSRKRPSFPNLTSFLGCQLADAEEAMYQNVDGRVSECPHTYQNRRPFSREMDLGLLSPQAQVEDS
Description: This assay is used to measure in vitro kinase activity of Flt3 in an ELISA assay.
• 1. Streptavidin coated, 96-well, white plate • 2. Phospho-Tyrosine Monoclonal Antibody (P-Tyr-100) (Cell Signaling) • 3. HRP-labeled anti-mouse IgG (Upstate) • 4. HTScan™ Tyrosine Kinase Buffer (4×) • 5. DTT (1000×. 1.25 M) • 6. ATP (10 mM) • 7. KDR (Tyr996) Biotinylated Peptide Substrate (Cell Signaling) • 8. Flt3 Kinase (recombinant, human) (Cell Signaling) • 9. Wash Buffer: 1× PBS, 0.05% Tween-20 (PBS/T) • 10. Bovine Serum Albumin (BSA) • 11. Stop Buffer: 50 mM EDTA pH 8 • 12. Enhanced chemiluminescence (ECL) (Amersham) Procedure for performing the assay in 96-well plate: • 1. Add 10 μl 10 mM ATP to 1.25 ml 6 μM substrate peptide. Dilute the mixture with dH20 to 2.5 ml to make 2× ATP/substrate cocktail ([ATP]=[…], [substrate]=3 μm). • 2. Immediately transfer enzyme from −80° C. to ice. Allow enzyme to thaw on ice. • 3. Microcentrifuge briefly at 4° C. to bring liquid to the bottom of the vial. Return immediately to ice. • 4. Add 10 μl of DTT (1.25 M) to 2.5 ml of 4× HTScan™ Tyrosine Kinase Buffer (240 mM HEPES pH 7.5, 20 mM MgCl2, 20 mM MnCl2, 12 μM Na3VO4) to make DTT/Kinase buffer. • 5. Transfer 1.25 ml of DTT/Kinase buffer to enzyme tube to make 4× reaction cocktail ([enzyme]=4 ng/μL in 4× reaction cocktail). • 6. Incubate 12.5 μl of the 4× reaction cocktail with 12.5 μl/well of prediluted compound of interest (usually around 10 μM) for 5 minutes at room temperature. • 7. Add 25 μl of 2× ATP/substrate cocktail to 25 μl/well preincubated reaction cocktail/compound. Final Assay Conditions for a 50 μl Reaction: • 60 mM HEPES pH 7.5 • 5 mM MgCl2 • 5 mM MnCl2 • 3 μM Na3VO4 • 1.25 mM DTT • […] • 1.5 μM peptide • 10 units Flt3 Kinase • 8. Incubate reaction plate at room temperature for 30 minutes. • 9. Add 50 μl/well Stop Buffer (50 mM EDTA, pH 8) to stop the reaction. • 10. Transfer 50 μl of each reaction and 50 μl dH2O/well to a 96-well streptavidincoated plate and incubate at room temperature for 60 minutes. • 11. Wash three times with 200 μl/well PBS/T • 12. Dilute primary antibody, Phospho-Tyrosine Monoclonal Antibody (P-Tyr-100), 1:1000 in PBS/T with 1% BSA. Add 100 μl/well of primary antibody. • 13. Incubate at room temperature for 60 minutes. • 14. Wash three times with 200 μl/well PBS/T • 15. Dilute HRP labeled anti-mouse IgG 1:500 in PBS/T with 1% BSA. Add 100 μl/well diluted antibody. • 16. Incubate at room temperature for 30 minutes. • 17. Wash five times with 200 μl/well PBS/T. • 18. Add 100 μl/well ECL Solution. • 19. Detect luminescence with appropriate Plate Reader.

HDAC4/5 = test: MEF2 reporter assay in HeLa cells; format: cell-based, human; settings: for EC50: 24 hours; for HDAC4/5 (MEF2 reporter assay) % Max Resp of CS055 at 3 μM: relative to CS055 at 3 μM
Description: HDAC subtype selectivity inhibition assay of tested compounds was carried out by several reporter gene assays experiments. Briefly, HeLa cells were seeded in 96-well plates the day before transfection to give a confluence of 50-80%. Cells were transfected with one of reporter gene plasmid containing a promoter sequence or response element upstream of a luciferase gene construct using FuGene6 transfection reagent according to the manufacturer's instruction (Roche). The promoters or response elements including p21-promoter, gdf11-promoter, MEF-binding element (MEF2), Nur77-promoter were fused upstream to the luciferase gene reporter construct. For normalizing the transfection efficiency, a GFP expression plasmid was cotransfected. Cells were allowed to express protein for 24 hours followed by addition of individual compounds or the vehicle (DMSO). 24 hours later the cells were harvested, and the luciferase assay and GFP assay were performed using corresponding assay kits according to the manufacturer's instructions (Promega).

VEGFR2 = VEGFR2 (Homo sapiens, UniProt P35968); test: VEGF receptor kinase ELISA bioassay; format: biochemical; settings: ELISA kinase assay, 200 μM ATP
Chain of VEGFR2 (P35968 807-1356): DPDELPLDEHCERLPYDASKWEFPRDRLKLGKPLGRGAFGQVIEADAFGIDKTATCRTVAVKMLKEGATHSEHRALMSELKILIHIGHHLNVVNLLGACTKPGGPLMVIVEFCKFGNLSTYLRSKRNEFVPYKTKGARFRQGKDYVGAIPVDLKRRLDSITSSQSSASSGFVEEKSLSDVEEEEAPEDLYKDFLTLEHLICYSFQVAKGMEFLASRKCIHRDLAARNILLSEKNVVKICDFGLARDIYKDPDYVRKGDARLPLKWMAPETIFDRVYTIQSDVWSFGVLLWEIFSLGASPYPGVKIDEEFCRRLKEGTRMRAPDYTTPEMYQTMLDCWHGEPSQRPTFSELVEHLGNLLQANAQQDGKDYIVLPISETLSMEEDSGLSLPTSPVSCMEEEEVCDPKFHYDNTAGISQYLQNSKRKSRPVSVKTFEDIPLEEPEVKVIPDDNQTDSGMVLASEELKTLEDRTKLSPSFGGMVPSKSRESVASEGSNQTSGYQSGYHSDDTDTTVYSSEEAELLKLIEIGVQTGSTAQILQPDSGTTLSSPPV

IC50 (Flt3) [nM] | EC50 (HDAC4/5) [nM] | IC50 (VEGFR2) [nM] | Compound | HDAC4/5 (MEF2 reporter assay) % Max Resp of CS055 at 3 μM (HDAC4/5) [%]
25 | 20000 | 35 | Cc1[nH]c(/C=C2\C(=O)Nc3ccc(F)cc32)c(C)c1C(=O)NCCCCNc1ccc(C(=O)Nc2ccccc2N)cn1 [Example 9, (Z)-N-(2-aminophenyl)-6-(4-(2-((5-fluoro-2-oxoindolin-3-ylidene)methyl)-3,5-dimethyl-1H-pyrrole-4-carboxamido)butylamino)nicotinamide] | 53.6
> 1000 |  | > 1000 | Cc1[nH]c(/C=N/N=C2\C(=O)Nc3ccc(F)cc32)c(C)c1C(=O)NCCCCNc1ccc(C(=O)Nc2ccccc2N)cn1 [Example 10, N-(2-aminophenyl)-6-(4-(2-(((5-fluoro-2-oxoindolin-3-ylidene)hydrazono)-methyl)-3,5-dimethyl-1H-pyrrole-4-carboxamido)butylamino)nicotinamide] | 12.8
63 |  | 43 | Cc1[nH]c(/C=C2\C(=O)Nc3ccc(F)cc32)c(C)c1C(=O)NCCNc1ccc(C(=O)Nc2ccc(F)cc2N)cn1 [Example 13, (Z)-N-(2-amino-4-fluorophenyl)-6-(2-(2-((5-fluoro-2-oxoindolin-3-ylidene)-methyl)-3,5-dimethyl-1H-pyrrole-4-carboxamido)ethylamino)nicotinamide] | 0.5
432 |  | 324 | Cc1[nH]c(/C=N/N=C2\C(=O)Nc3ccc(F)cc32)c(C)c1C(=O)NCCNc1ccc(C(=O)Nc2ccc(F)cc2N)cn1 [Example 14, N-(2-amino-4-fluorophenyl)-6-(2-(2-(((5-fluoro-2-oxoindolin-3-ylidene)-hydrazono)methyl)-3,5-dimethyl-1H-pyrrole-4-carboxamido)ethylamino)nicotinamide] | 2.4
623 |  | 72 | Cc1[nH]c(/C=C2\C(=O)Nc3ccc(F)cc32)c(C)c1C(=O)NCCCNc1ccc(C(=O)Nc2ccc(F)cc2N)cn1 [Example 16, (Z)-N-(2-amino-4-fluorophenyl)-6-(3-(2-((5-fluoro-2-oxoindolin-3-ylidene)-methyl)-3,5-dimethyl-1H-pyrrole-4-carboxamido)propylamino)nicotinamide] | −0.2

The next lines start with the compound.

Compound | IC50 (Flt3) [nM] | EC50 (HDAC4/5) [nM] | IC50 (VEGFR2) [nM] | HDAC4/5 (MEF2 reporter assay) % Max Resp of CS055 at 3 μM (HDAC4/5) [%]
Cc1[nH]c(/C=C2\C(=O)Nc3ccc(F)cc32)c(C)c1C(=O)NCCNc1ccc(C(=O)Nc2ccccc2N)cn1 [Example 3, (Z)-N-(2-aminophenyl)-6-(2-(2-((5-fluoro-2-oxoindolin-3-ylidene)methyl)-3,5-dimethyl-1H-pyrrole-4-carboxamido)ethylamino)nicotinamide] | 76 | 2200 | 11 | 83.2
Cc1[nH]c(/C=N/N=C2\C(=O)Nc3ccc(F)cc32)c(C)c1C(=O)NCCNc1ccc(C(=O)Nc2ccccc2N)cn1 [Example 4, N-(2-aminophenyl)-6-(2-(2-(((5-fluoro-2-oxoindolin-3-ylidene)hydrazono)-methyl)-3,5-dimethyl-1H-pyrrole-4-carboxamido)ethylamino)nicotinamide] | 870 |  | 12 | 4.9
Cc1[nH]c(/C=C2\C(=O)Nc3ccc(F)cc32)c(C)c1C(=O)NCCCNc1ccc(C(=O)Nc2ccccc2N)cn1 [Example 6, (Z)-N-(2-aminophenyl)-6-(3-(2-((5-fluoro-2-oxoindolin-3-ylidene)methyl)-3,5-dimethyl-1H-pyrrole-4-carboxamido)propylamino)nicotinamide] | 132 | 1000 | 45 | 44.2
Cc1[nH]c(/C=N/N=C2\C(=O)Nc3ccc(F)cc32)c(C)c1C(=O)NCCCNc1ccc(C(=O)Nc2ccccc2N)cn1 [Example 7, N-(2-aminophenyl)-6-(3-(2-(((5-fluoro-2-oxoindolin-3-ylidene)hydrazono)-methyl)-3,5-dimethyl-1H-pyrrole-4-carboxamido)propylamino)nicotinamide] | 451 |  | 634 | 2.6
Cc1[nH]c(/C=N/N=C2\C(=O)Nc3ccc(F)cc32)c(C)c1C(=O)NCCCNc1ccc(C(=O)Nc2ccc(F)cc2N)cn1 [Example 17, N-(2-amino-4-fluorophenyl)-6-(3-(2-(((5-fluoro-2-oxoindolin-3-ylidene)-hydrazono)methyl)-3,5-dimethyl-1H-pyrrole-4-carboxamido)propylamino)nicotinamide] | > 1000 |  | > 1000 | 10.8
Cc1[nH]c(/C=C2\C(=O)Nc3ccc(F)cc32)c(C)c1C(=O)NCCCCNc1ccc(C(=O)Nc2ccc(F)cc2N)cn1 [Example 19, (Z)-N-(2-amino-4-fluorophenyl)-6-(4-(2-((5-fluoro-2-oxoindolin-3-ylidene)-methyl)-3,5-dimethyl-1H-pyrrole-4-carboxamido)butylamino)nicotinamide] | 21 |  | 157 | 1.9
Cc1[nH]c(/C=N/N=C2\C(=O)Nc3ccc(F)cc32)c(C)c1C(=O)NCCCCNc1ccc(C(=O)Nc2ccc(F)cc2N)cn1 [Example 20, N-(2-amino-4-fluorophenyl)-6-(4-(2-(((5-fluoro-2-oxoindolin-3-ylidene)-hydrazono)methyl)-3,5-dimethyl-1H-pyrrole-4-carboxamido)butylamino)nicotinamide] | > 1000 |  | > 1000 | 16.3
